In patent US12655116B2, “Substituted isophthalic acid diamides” (Bayer Aktiengesellschaft, priority 2020, dated 2026):

What was measured:
[1] = test system: ABUTH; test: Pre-emergence herbicidal action against ABUTH; type: in vivo, Abutilon theophrasti; conditions: Abutilon theophrasti, 504 h; for pest or weed control at 80 g/ha: scored visually after 3 weeks vs untreated controls (100% = plants have died, 0% = like control plants); for pest or weed control at 320 g/ha: Dosage: 320 g/ha, scored visually after 3 weeks; for pest or weed control at 320 g/ha / pest or weed control at 20 g/ha: 100% = plants have died, 0% = like control plants; for pest or weed control at 20 g/ha: dosage 20 g/ha, scored visually after 3 weeks vs untreated controls, read-out: Pre-emergence action against ABUTH (herbicidal activity in percent)
In short: (§1)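 Sandy loam pots, seeds covered with soil, then surface-treated with WP or EC formulations at 600–800 l/ha water plus 0.2% wetting agent. Greenhouse, 3 weeks. Percent damage vs untreated controls.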

[2] = test system: AVEFA; test: Pre-emergence herbicidal action against AVEFA; type: in vivo, Avena fatua; conditions: Avena fatua, 504 h, pre-emergence; for pest or weed control at 320 g/ha: scored visually after 3 weeks, 100% = plants have died, 0% = like control plants
In short: as §1

[3] = test system: ECHCG; test: Pre-emergence herbicidal action against ECHCG; type: in vivo, Echinochloa crus-galli; conditions: Echinochloa crus-galli, 504 h
In short: as §1

[4] = test system: HORMU; test: Pre-emergence herbicidal action against HORMU; type: in vivo, Hordeum murinum; conditions: Hordeum murinum, 504 h, pre-emergence
In short: as §1

[5] = test system: LOLRI; test: Pre-emergence herbicidal action against LOLRI; type: in vivo, Lolium rigidum; conditions: Lolium rigidum, 504 h
In short: as §1

[6] = test system: MATIN; test: Pre-emergence herbicidal action against MATIN; type: in vivo, Matricaria inodora; conditions: Tripleurospermum inodorum, 504 h; for pest or weed control at 80 g/ha: dosage 80 g/ha; for pest or weed control at 320 g/ha: dosage 320 g/ha
In short: as §1

[7] = test system: POLCO; test: Pre-emergence herbicidal action against POLCO; type: in vivo, Polygonum convolvulus; conditions: Fallopia convolvulus, 504 h; for pest or weed control at 320 g/ha: dosage 320 g/ha
In short: as §1

[8] = test system: STEME; test: Pre-emergence herbicidal action against STEME; type: in vivo, Stellaria media; conditions: Stellaria media, 504 h; for pest or weed control at 80 g/ha: dosage 80 g/ha; for pest or weed control at 320 g/ha: dosage 320 g/ha
In short: as §1

[9] = test system: VERPE; test: Pre-emergence herbicidal action against VERPE; type: in vivo, Veronica persica; conditions: Veronica persica, 504 h; for pest or weed control at 80 g/ha: dosage 80 g/ha; for pest or weed control at 320 g/ha: dosage 320 g/ha
In short: as §1

[10] = test system: ABUTH; test: Post-emergence herbicidal action against ABUTH; type: in vivo, Abutilon theophrasti; conditions: Abutilon theophrasti, 504 h, visual assessment about 3 weeks after treatment vs untreated controls; for pest or weed control at 5 g/ha: dosage 5 g/ha; for pest or weed control at 20 g/ha: dosage 20 g/ha; for pest or weed control at 80 g/ha: dosage 80 g/ha
In short: (§2)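 Visual % rating (0% = as untreated, 100% = dead) ~3 wk after spraying one-leaf-stage plants grown in sandy loam; WP/EC in water at 600–800 l/ha, 0.2% wetting agent.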

[11] = test system: ALOMY; test: Post-emergence herbicidal action against ALOMY; type: in vivo, Alopecurus myosuroides; conditions: Alopecurus myosuroides, 504 h, visual assessment about 3 weeks after treatment vs untreated controls; for pest or weed control at 20 g/ha: dosage 20 g/ha; for pest or weed control at 80 g/ha: dosage 80 g/ha
In short: as §2

[12] = test system: AMARE; test: Post-emergence herbicidal action against AMARE; type: in vivo, Amaranthus retroflexus; conditions: Amaranthus retroflexus, 504 h, visual assessment about 3 weeks after treatment, 100% = plants have died, 0% = like control plants
In short: as §2

[13] = test system: AVEFA; test: Post-emergence herbicidal action against AVEFA; type: in vivo, Avena fatua; conditions: Avena fatua, 504 h, visual assessment about 3 weeks after treatment, 100% = plants have died, 0% = like control plants
In short: as §2

[14] = test system: ECHCG; test: Post-emergence herbicidal action against ECHCG; type: in vivo, Echinochloa crus-galli; conditions: Echinochloa crus-galli, 504 h; for pest or weed control at 20 g/ha: dosage 20 g/ha; for pest or weed control at 80 g/ha: dosage 80 g/ha
In short: as §2

[15] = test system: HORMU; test: Post-emergence herbicidal action against HORMU; type: in vivo, Hordeum murinum; conditions: Hordeum murinum, 504 h; for pest or weed control at 80 g/ha: dosage 80 g/ha; for pest or weed control at 20 g/ha: dosage 20 g/ha
In short: as §2

[16] = test system: LOLRI; test: Post-emergence herbicidal action against LOLRI; type: in vivo, Lolium rigidum; conditions: Lolium rigidum, 504 h; for pest or weed control at 80 g/ha: dosage 80 g/ha
In short: as §2

[17] = test system: PHBPU; test: Post-emergence herbicidal action against PHBPU; type: in vivo, Pharbitis purpurea; conditions: Ipomoea purpurea, 504 h; for pest or weed control at 80 g/ha: dosage 80 g/ha
In short: as §2

[18] = test system: SETVI; test: Post-emergence herbicidal action against SETVI; type: in vivo, Setaria viridis; conditions: Setaria viridis, 504 h; for pest or weed control at 20 g/ha: dosage 20 g/ha; for pest or weed control at 80 g/ha: dosage 80 g/ha
In short: as §2

[19] = test system: STEME; test: Post-emergence herbicidal action against STEME; type: in vivo, Stellaria media; conditions: Stellaria media, 504 h
In short: as §2

[20] = test system: VERPE; test: Post-emergence herbicidal action against VERPE; type: in vivo, Veronica persica; conditions: Veronica persica, 504 h
In short: as §2

[21] = test system: VIOTR; test: Post-emergence herbicidal action against VIOTR; type: in vivo, Viola tricolor; conditions: Viola tricolor, 504 h
In short: as §2

[22] = test system: MATIN; test: Post-emergence herbicidal action against MATIN; type: in vivo, Matricaria inodora; conditions: Tripleurospermum inodorum, 504 h
In short: as §2

CCn1nnnc1NC(=O)c1ccc(C(F)(F)F)c(C(N)=O)c1Cl [Example 2-338]
pest or weed control at 80 g/ha [1]: 100%
pest or weed control at 320 g/ha [1]: 100%
pest or weed control at 20 g/ha [1]: 90%
pest or weed control at 80 g/ha [2]: 90%
pest or weed control at 320 g/ha [2]: 100%
pest or weed control at 80 g/ha [3]: 90%
pest or weed control at 320 g/ha [3]: 100%
pest or weed control at 80 g/ha [4]: 80%
pest or weed control at 320 g/ha [4]: 100%
pest or weed control at 320 g/ha [5]: 100%
pest or weed control at 80 g/ha [6]: 90%
pest or weed control at 320 g/ha [6]: 100%
pest or weed control at 320 g/ha [7]: 90%
pest or weed control at 80 g/ha [8]: 90%
pest or weed control at 320 g/ha [8]: 100%
pest or weed control at 80 g/ha [9]: 100%
pest or weed control at 320 g/ha [9]: 100%
pest or weed control at 5 g/ha [10]: 100%
pest or weed control at 20 g/ha [10]: 100%
pest or weed control at 80 g/ha [10]: 100%
pest or weed control at 20 g/ha [11]: 80%
pest or weed control at 80 g/ha [11]: 100%
pest or weed control at 20 g/ha [12]: 100%
pest or weed control at 80 g/ha [12]: 100%
pest or weed control at 20 g/ha [13]: 80%
pest or weed control at 80 g/ha [13]: 100%
pest or weed control at 20 g/ha [14]: 80%
pest or weed control at 80 g/ha [14]: 100%
pest or weed control at 80 g/ha [15]: 100%
pest or weed control at 80 g/ha [16]: 90%
pest or weed control at 80 g/ha [17]: 90%
pest or weed control at 20 g/ha [18]: 80%
pest or weed control at 80 g/ha [18]: 100%
pest or weed control at 20 g/ha [19]: 90%
pest or weed control at 80 g/ha [19]: 100%
pest or weed control at 20 g/ha [20]: 90%
pest or weed control at 80 g/ha [20]: 100%
pest or weed control at 20 g/ha [21]: 100%
pest or weed control at 80 g/ha [21]: 100%

CCc1c(C(=O)Nc2nnnn2C)ccc(C(F)(F)F)c1C(=O)NC1CC1 [Example 1-273]
pest or weed control at 80 g/ha [1]: 100%
pest or weed control at 20 g/ha [1]: 100%
pest or weed control at 80 g/ha [2]: 100%
pest or weed control at 20 g/ha ([3]; 20 g/ha): 90%
pest or weed control at 80 g/ha [3]: 100%
pest or weed control at 80 g/ha [4]: 80%
pest or weed control at 80 g/ha ([5]; 80 g/ha): 80%
pest or weed control at 20 g/ha ([6]; dosage 20 g/ha): 100%
pest or weed control at 80 g/ha [6]: 100%
pest or weed control at 80 g/ha ([7]; dosage 80 g/ha): 90%
pest or weed control at 20 g/ha ([8]; dosage 20 g/ha): 100%
pest or weed control at 80 g/ha [8]: 100%
pest or weed control at 80 g/ha [9]: 90%
pest or weed control at 5 g/ha [10]: 90%
pest or weed control at 20 g/ha [10]: 90%
pest or weed control at 5 g/ha ([11]; dosage 5 g/ha): 80%
pest or weed control at 20 g/ha [11]: 100%
pest or weed control at 20 g/ha [12]: 100%
pest or weed control at 20 g/ha [13]: 90%
pest or weed control at 5 g/ha ([14]; dosage 5 g/ha): 80%
pest or weed control at 20 g/ha [14]: 90%
pest or weed control at 5 g/ha ([15]; dosage 5 g/ha): 80%
pest or weed control at 20 g/ha [15]: 90%
pest or weed control at 20 g/ha ([16]; dosage 20 g/ha): 80%
pest or weed control at 5 g/ha ([22]; dosage 5 g/ha): 100%
pest or weed control at 20 g/ha ([22]; dosage 20 g/ha): 100%
pest or weed control at 20 g/ha ([17]; dosage 20 g/ha): 80%
pest or weed control at 5 g/ha ([18]; dosage 5 g/ha): 80%
pest or weed control at 20 g/ha [18]: 100%
pest or weed control at 20 g/ha [19]: 100%
pest or weed control at 5 g/ha ([19]; dosage 5 g/ha): 90%
pest or weed control at 20 g/ha [20]: 90%
pest or weed control at 5 g/ha ([21]; 5 g/ha): 100%
pest or weed control at 20 g/ha [21]: 100%

Cn1nnnc1NC(=O)c1ccc(C(F)(F)F)c(C(N)=O)c1Cl [Example 1-338]
pest or weed control at 80 g/ha [1]: 100%
pest or weed control at 320 g/ha [1]: 100%
pest or weed control at 20 g/ha [1]: 80%
pest or weed control at 80 g/ha [2]: 90%
pest or weed control at 320 g/ha [2]: 100%
pest or weed control at 80 g/ha [3]: 90%
pest or weed control at 320 g/ha [3]: 100%
pest or weed control at 320 g/ha [4]: 100%
pest or weed control at 320 g/ha [5]: 90%
pest or weed control at 80 g/ha [6]: 80%
pest or weed control at 320 g/ha [6]: 100%
pest or weed control at 320 g/ha [7]: 80%
pest or weed control at 80 g/ha [8]: 90%
pest or weed control at 320 g/ha [8]: 90%
pest or weed control at 80 g/ha [9]: 90%
pest or weed control at 320 g/ha [9]: 100%
pest or weed control at 5 g/ha [10]: 90%
pest or weed control at 20 g/ha [10]: 90%
pest or weed control at 80 g/ha [10]: 100%
pest or weed control at 80 g/ha [11]: 100%
pest or weed control at 20 g/ha [12]: 90%
pest or weed control at 80 g/ha [12]: 100%
pest or weed control at 20 g/ha [13]: 80%
pest or weed control at 80 g/ha [13]: 100%
pest or weed control at 20 g/ha [14]: 90%
pest or weed control at 80 g/ha [14]: 90%
pest or weed control at 20 g/ha [15]: 80%
pest or weed control at 80 g/ha [15]: 90%
pest or weed control at 80 g/ha [16]: 80%
pest or weed control at 80 g/ha [17]: 90%
pest or weed control at 20 g/ha [18]: 80%
pest or weed control at 80 g/ha [18]: 100%
pest or weed control at 80 g/ha [19]: 90%
pest or weed control at 80 g/ha [20]: 100%
pest or weed control at 80 g/ha [21]: 90%
